Source: patent US20140073639A1 (priority 2012, published 2014)

Tests used:
S. MRSA = test: microbe, parasite or virus in culture; type: cell-based; settings: for inhibition at 3 µM / inhibition at 10 µM / inhibition at 30 µM: Staphylococcus aureus, MRSA; for inhibition at 3 µM: read-out: S. MRSA 3 μM (growth inhibition); for inhibition at 10 µM: read-out: S. MRSA 10 μM (growth inhibition); for inhibition at 30 µM: read-out: S. MRSA 30 μM (growth inhibition)
B. Anthracis = test: microbe, parasite or virus in culture; type: cell-based; settings: for inhibition at 3 µM / inhibition at 10 µM / inhibition at 30 µM: Bacillus anthracis; for inhibition at 3 µM: read-out: B. Anthracis 3 μM (growth inhibition); for inhibition at 10 µM: read-out: B. Anthracis 10 μM (growth inhibition); for inhibition at 30 µM: read-out: B. Anthracis 30 μM (growth inhibition)

Compound | inhibition at 3 µM (S. MRSA) | inhibition at 10 µM (S. MRSA; 10 μM) | inhibition at 30 µM (S. MRSA; 30 μM) | inhibition at 3 µM (B. Anthracis) | inhibition at 10 µM (B. Anthracis) | inhibition at 30 µM (B. Anthracis; 30 μM) | B. Anthracis 10 μM (growth inhibition) (B. Anthracis) | S. MRSA 10 μM (growth inhibition) (S. MRSA; 10 μM) | S. MRSA 30 μM (growth inhibition) (S. MRSA; 30 μM) | B. Anthracis 30 μM (growth inhibition) (B. Anthracis; 30 μM)
O=C1NC(=O)C(=Cc2ccc(Br)s2)C(=O)N1 [Cmpd 18] | 13.6% | 15.2% | 18.4% | 0% | 0% | 0% |  |  |  | 
O=C(O)C(Cc1ccccc1)N1C(=O)/C(=C\c2ccc(-c3ccc(Cl)c(Cl)c3)s2)NC1=S (stereo not shown) [Cmpd 50] | -14.6% | 14.3% | 35.6% | 1.03% | 108% | 94.2% |  |  |  | 
CC(C)C(C(=O)O)N1C(=O)/C(=C2/C(=O)Nc3ccccc32)SC1=S (stereo not shown) [Cmpd 5] |  | 15.9% | 40.6% |  |  | 11.2% | −1.33 |  |  | 
O=C(O)C(Cc1ccccc1)N1C(=O)/C(=C\c2ccc(-c3ccc(I)cc3)o2)NC1=S (stereo not shown) [Cmpd 45] | -1.84% | 88.2% | 92.7% | 49.2% | 97.4% | 96.4% |  |  |  | 
CC(=O)C(Cc1ccccc1)N1C(=O)/C(=C2/C(=O)Nc3cc(Cl)c(Cl)cc32)NC1=S (stereo not shown) [Cmpd 49] | -7.73% | -20.3% | -26.3% | 1.73% | -7.49% | 97.2% |  |  |  | 
COc1ccc(-c2ccc(/C=C3/NC(=S)N(C(Cc4ccccc4)C(=O)O)C3=O)s2)cc1 (stereo not shown) [Cmpd 33] | -2.94% | -13.2% | 18.5% | -3.85% | 0% | 100% |  |  |  | 
CCN1C(=O)NC(=O)/C(=C\c2ccc(-c3ccc(Cl)c(C(=O)O)c3)o2)C1=O [Cmpd 30] | 1.47% | -2.94% | -4.41% | -8.49% | 1% | -11.6% |  |  |  | 
O=C(O)C(Cc1ccccc1)N1C(=O)/C(=C\c2ccc(-c3ccc(Cl)c(Cl)c3)o2)NC1=S (stereo not shown) [Cmpd 42] |  | 98.7% | 94.5% | 96.2% | 99.5% | 96.7% |  |  |  | 
O=C1Nc2ccc(Br)cc2/C1=C1/SC(=S)N(C(Cc2ccccc2)C(=O)O)C1=O (stereo not shown) [Cmpd 22] |  |  |  |  |  |  | 83.27 | 10.74 | 86.76 | 90.11
CN1C(=O)C(Cc2ccc(-c3ccc(Cl)c(Cl)c3)o2)C(=O)N(C)C1=O [Cmpd 23] | -8.09% | -7.35% | 0% | -8.49% | 1.54% | 10.7% |  |  |  | 
O=C(O)CCCCCN1C(=O)/C(=C2/C(=O)Nc3ccc(Br)cc32)SC1=S [Cmpd 4] |  | 41.6% | 69.4% |  | 52.3% | 91.2% |  |  |  | 
O=C(O)C(Cc1ccccc1)N1C(=O)/C(=C\c2ccc(-c3ccc(Br)cc3)s2)NC1=S (stereo not shown) [Cmpd 36] | -19.2% | 91.1% | 91.1% | 76.9% | 97.7% | 96.7% |  |  |  | 
O=C(O)C(Cc1ccccc1)N1C(=O)/C(=C\c2ccc(-c3ccc(Br)cc3)o2)NC1=S (stereo not shown) [Cmpd 39] | -9.55% | 92.5% | 95.4% | 72.6% | 98.8% | 98.8% |  |  |  | 
O=C(O)[C@H](Cc1ccccc1)N1C(=O)/C(=C\c2ccc(-c3cc(Cl)cc(Cl)c3)o2)NC1=S [Cmpd 51] | -0.61% | -7.03% | 85.3% | -0.16% | -3.08% | 99.3% |  |  |  | 
COc1ccc(N2C(=O)/C(=C/c3ccc(Br)s3)C(=O)NC2=S)cc1 [Cmpd 11] |  | 14.8% | 42.6% |  | 16.2% | 47.3% |  |  |  | 
O=C1NC(=S)NC(=O)C1=Cc1ccc(-c2cccc(C(=O)O)c2)o1 [Cmpd 28] | -0.74% | -2.21% | -3.68% | -9.26% | -3.09% | -13.1% |  |  |  | 
O=C1NC(=O)N(Cc2ccc(F)cc2)C(=O)/C1=C/c1ccc(Br)s1 [Cmpd 10] |  | 14.8% | 62.2% |  | 10.3% | 68.2% |  |  |  | 
O=C(O)C(Cc1ccccc1)N1C(=O)/C(=C\c2ccc(-c3ccc(OC(F)(F)F)cc3)o2)NC1=S (stereo not shown) [Cmpd 43] | -1.32% | -6.26% | 95.2% | 8.01% | 96.7% | 96.6% |  |  |  | 
O=C(O)C(Cc1ccccc1)N1C(=O)/C(=C\c2ccc(Br)s2)NC1=S (stereo not shown) [Cmpd 37] |  |  | -6.27% |  |  | 0% |  |  |  | 
O=C(O)C(Cc1ccccc1)N1C(=O)/C(=C\c2ccc(-c3ccc(F)cc3)s2)NC1=S (stereo not shown) [Cmpd 34] | -15.8% | -24.8% | 46.2% | 0% | 6.99% | 98.8% |  |  |  | 
COc1ccc(-c2nnc(-c3ccccc3)o2)cc1S(=O)(=O)Nc1cc2c(cc1C#N)OCO2 [Cmpd 7] |  | -7.79% | -1.62% |  | 19.6% | 74.9% |  |  |  | 
O=C(O)C(Cc1ccccc1)N1C(=O)/C(=C\c2ccc(-c3ccc(Cl)cc3)s2)NC1=S (stereo not shown) [Cmpd 35] | -2.94% | -1.47% | 91% | -5.4% | 100% | 100% |  |  |  | 
O=C(O)C(Cc1ccccc1)N1C(=O)/C(=C\c2ccc(-c3ccc(Br)c(Cl)c3)s2)NC1=S (stereo not shown) [Cmpd 41] |  | -7.45% | -0.89% | 19.5% | 8.15% | 94.5% |  |  |  | 
O=C1NC(=S)N(c2cccc(Cl)c2)C(=O)/C1=C/c1ccc(-c2cc(C(=O)O)ccc2Cl)o1 [Cmpd 25] | -2.21% | -4.41% | -5.15% | -10.8% | -3.09% | -3.09% |  |  |  | 
CCOc1cccc(N2C(=O)/C(=C/c3ccc(-c4cc(C(=O)O)ccc4Cl)o3)C(=O)NC2=S)c1 [Cmpd 27] | 0.74% | 8.82% | -0.74% | -9.26% | 0% | -11.6% |  |  |  | 
O=C1NC(=S)N(c2ccc(Cl)cc2)C(=O)/C1=C/c1ccc(-c2ccccc2C(=O)O)o1 [Cmpd 26] | 1.47% | 16.1% | 92.4% | 2.32% | 97% | 100% |  |  |  | 
O=C1NC(=S)NC(=O)C1=Cc1ccc(-c2ccc(Cl)cc2)o1 [Cmpd 15] |  | 20% | 63.2% |  | 3.62% | 42.2% |  |  |  | 
O=C1NC(=S)NC(=O)C1=Cc1ccc(Br)cc1 [Cmpd 16] | 13.6% | 12% | 8.76% | 0% | 0% | 0% |  |  |  | 
O=C(O)C(Cc1ccccc1)N1C(=O)/C(=C\c2ccc(-c3ccc(Br)c(Cl)c3)o2)NC1=S (stereo not shown) [Cmpd 40] | 17.9% | 95.7% | 95.7% | 98.1% | 98.1% | 98.1% |  |  |  | 
